The results in this text go back to patent US4740504A, “Antihyperlipidemic amine boranes” (United States Borax & Chemical Corp., priority 1987, dated 1988).

The structures appear in SMILES notation. A value given as a limit tells only on which side of the number the result lay.

One data set has as its system Sprague Dawley male rats. Kind of data set: Hypolipidemic activity in Sprague Dawley rats, oral dosing (serum cholesterol and triglyceride). The format is in vivo. How it is done:
N-n-Octadecyl-N,N-dimethylamine borane was suspended in an aqueous 1% carboxymethylcellulose solution, homogenized, and administered to CF1 male mice (~25 g.) intraperitoneally for 16 days or Sprague Dawley male rats (~350 g.) orally by an intubation needle for 14 days. On days 9 and 14 or 16, blood was obtained by tail vein bleeding and the serum separated by centrifugation for 3 minutes. The serum cholesterol levels were determined by a modification of the Liebermann-Burchard reaction. Serum was also collected on day 14 or 16 and the triglyceride content was determined by a Fisher-Hycel Triglyceride Test Kit.

A short description of another data set: Toxicity (LD50). Particulars: in vivo.
Data set [1] concerns the target T1, ATP dependent citrate lyase (Mus musculus, UniProt Q91V92).
T1 construct: from tissue
T1 sequence (Q91V92 1-1091): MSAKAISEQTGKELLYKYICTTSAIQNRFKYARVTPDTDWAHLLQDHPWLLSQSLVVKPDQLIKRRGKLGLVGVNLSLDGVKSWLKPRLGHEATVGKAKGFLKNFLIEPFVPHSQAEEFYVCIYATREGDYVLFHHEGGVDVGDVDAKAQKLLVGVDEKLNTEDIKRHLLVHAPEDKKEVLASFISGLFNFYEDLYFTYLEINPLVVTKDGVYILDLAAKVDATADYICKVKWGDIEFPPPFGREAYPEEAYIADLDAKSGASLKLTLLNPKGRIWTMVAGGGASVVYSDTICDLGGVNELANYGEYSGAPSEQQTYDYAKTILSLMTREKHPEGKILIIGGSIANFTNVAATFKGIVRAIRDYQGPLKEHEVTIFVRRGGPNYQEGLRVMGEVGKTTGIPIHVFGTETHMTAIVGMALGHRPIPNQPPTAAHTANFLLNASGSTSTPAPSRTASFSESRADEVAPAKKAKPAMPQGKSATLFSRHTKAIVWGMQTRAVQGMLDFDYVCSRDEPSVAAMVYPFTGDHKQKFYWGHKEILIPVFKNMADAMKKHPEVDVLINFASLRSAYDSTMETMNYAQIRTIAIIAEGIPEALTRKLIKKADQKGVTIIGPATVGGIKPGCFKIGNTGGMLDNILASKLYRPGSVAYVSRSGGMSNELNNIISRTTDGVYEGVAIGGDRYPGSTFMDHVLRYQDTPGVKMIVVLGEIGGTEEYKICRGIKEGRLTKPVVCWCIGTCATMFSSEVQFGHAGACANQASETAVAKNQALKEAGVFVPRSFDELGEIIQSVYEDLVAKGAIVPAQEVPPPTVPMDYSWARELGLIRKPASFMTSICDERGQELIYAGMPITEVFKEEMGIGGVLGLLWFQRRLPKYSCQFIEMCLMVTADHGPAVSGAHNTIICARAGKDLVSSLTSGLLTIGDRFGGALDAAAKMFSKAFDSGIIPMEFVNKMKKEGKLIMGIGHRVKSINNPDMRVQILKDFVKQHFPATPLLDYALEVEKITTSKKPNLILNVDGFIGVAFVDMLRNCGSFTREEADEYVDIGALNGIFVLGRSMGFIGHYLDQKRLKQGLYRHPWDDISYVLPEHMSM
Kind of data set: Enzymatic studies in vitro: ATP dependent citrate lyase. The format is biochemical. Particulars: at all concentrations tested.

The target of another data set is T2, Cholesterol 7α hydrolase (Mus musculus, UniProt Q64505).
T2 construct: from tissue; host or cells: liver (inferred; the enzyme is liver-specific)
T2 sequence (Q64505 whole entry): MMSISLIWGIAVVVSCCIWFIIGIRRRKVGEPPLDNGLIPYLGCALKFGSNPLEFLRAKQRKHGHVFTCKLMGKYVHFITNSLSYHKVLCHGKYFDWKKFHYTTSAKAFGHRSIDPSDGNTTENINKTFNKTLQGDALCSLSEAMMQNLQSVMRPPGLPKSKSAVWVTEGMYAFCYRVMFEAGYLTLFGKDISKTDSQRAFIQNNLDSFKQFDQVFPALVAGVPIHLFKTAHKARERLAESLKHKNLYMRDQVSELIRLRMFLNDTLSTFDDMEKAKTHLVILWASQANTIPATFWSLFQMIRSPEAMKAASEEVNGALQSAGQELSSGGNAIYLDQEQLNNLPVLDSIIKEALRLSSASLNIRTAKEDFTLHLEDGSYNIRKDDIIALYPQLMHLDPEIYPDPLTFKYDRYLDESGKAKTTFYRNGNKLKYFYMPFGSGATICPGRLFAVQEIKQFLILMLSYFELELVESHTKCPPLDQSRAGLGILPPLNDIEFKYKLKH
Description: Enzymatic studies in vitro: cholesterol 7α hydrolase. It counts as biochemical.

Data set [2] concerns the target T3, acyl CoA cholesterol acyl transferase (Mus musculus, UniProt O88908).
T3 construct: from tissue
T3 sequence (O88908 1-525): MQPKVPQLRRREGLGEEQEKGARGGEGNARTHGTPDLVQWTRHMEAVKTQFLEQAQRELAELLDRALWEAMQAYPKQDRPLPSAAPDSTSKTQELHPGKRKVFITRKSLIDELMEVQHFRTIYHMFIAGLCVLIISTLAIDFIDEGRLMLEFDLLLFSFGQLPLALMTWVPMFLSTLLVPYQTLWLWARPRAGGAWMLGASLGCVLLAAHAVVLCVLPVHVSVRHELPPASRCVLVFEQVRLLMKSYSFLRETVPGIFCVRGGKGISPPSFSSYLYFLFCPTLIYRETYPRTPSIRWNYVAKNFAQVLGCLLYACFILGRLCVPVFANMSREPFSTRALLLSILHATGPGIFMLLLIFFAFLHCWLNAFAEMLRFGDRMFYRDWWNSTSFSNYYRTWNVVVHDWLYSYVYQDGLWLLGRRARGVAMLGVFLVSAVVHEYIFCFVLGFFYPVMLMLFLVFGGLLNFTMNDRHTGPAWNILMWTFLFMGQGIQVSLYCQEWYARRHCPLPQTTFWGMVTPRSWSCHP
Kind of data set: Enzymatic studies in vitro: acyl CoA cholesterol acyl transferase. It counts as biochemical. As to conditions: read-out: reduction of acyl CoA cholesterol acyl transferase activity.

For data set [3], the system named is sn-glycerol-3 phosphate acyl transferase. Description: Enzymatic studies in vitro: sn-glycerol-3 phosphate acyl transferase. The format is biochemical.
The subject of data set [4] is phosphatidate phosphohydrolase. Kind of data set: Enzymatic studies in vitro: phosphatidate phosphohydrolase. As to conditions: 200 μM. It counts as biochemical.
The subject of data set [5] is Hepatic lipoprotein lipase. Description: Enzymatic studies in vitro: hepatic lipoprotein lipase induced by heparin. The format is biochemical.
The next data set deals with T4, acetyl CoA synthetase (Mus musculus, UniProt Q9QXG4).
T4 construct: from tissue
T4 sequence (Q9QXG4 whole entry): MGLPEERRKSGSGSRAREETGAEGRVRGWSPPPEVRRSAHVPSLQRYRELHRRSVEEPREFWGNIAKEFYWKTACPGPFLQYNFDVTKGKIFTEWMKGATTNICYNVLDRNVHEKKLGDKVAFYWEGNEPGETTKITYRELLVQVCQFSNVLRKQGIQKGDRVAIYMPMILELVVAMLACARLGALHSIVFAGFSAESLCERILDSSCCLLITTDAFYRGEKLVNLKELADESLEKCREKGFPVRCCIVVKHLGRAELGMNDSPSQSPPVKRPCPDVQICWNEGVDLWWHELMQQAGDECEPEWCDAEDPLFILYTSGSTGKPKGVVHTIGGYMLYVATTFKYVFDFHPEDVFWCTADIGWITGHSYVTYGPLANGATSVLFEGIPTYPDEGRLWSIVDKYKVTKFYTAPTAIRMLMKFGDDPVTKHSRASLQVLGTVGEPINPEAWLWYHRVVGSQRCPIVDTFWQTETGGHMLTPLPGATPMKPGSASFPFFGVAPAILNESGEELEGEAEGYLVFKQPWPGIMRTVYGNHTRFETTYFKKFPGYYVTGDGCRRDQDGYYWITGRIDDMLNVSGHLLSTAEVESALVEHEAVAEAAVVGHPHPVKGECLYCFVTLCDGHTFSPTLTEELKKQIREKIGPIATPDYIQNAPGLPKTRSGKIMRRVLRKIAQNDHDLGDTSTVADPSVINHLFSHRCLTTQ
Description: Enzyme activity after in vivo dosing: acetyl CoA synthetase. Particulars: 16 mg/kg/day.

Data set [6] deals with T1, ATP dependent citrate lyase. Description: Enzyme activity after in vivo dosing: ATP dependent citrate lyase. As to conditions: 16 mg/kg/day.
The target of data set [7] is T5, Cholesterol 7α hydroxylase (Mus musculus, UniProt Q64505).
T5 construct: from tissue; host or cells: liver (inferred; the enzyme is liver-specific)
T5 sequence (Q64505 whole entry): as the sequence (Q64505 whole entry) above
Kind of data set: Enzyme activity after in vivo dosing: cholesterol 7α hydroxylase. Particulars: 16 mg/kg.

Data set [8] relates to phosphatidate phosphohydrolase. Description: Enzyme activity after in vivo dosing: phosphatidate phosphohydrolase. As to conditions: 16 mg/kg/day.
[9] abbreviates: Sprague Dawley rats, oral administration at 20 mg/kg/day.
Where [10] appears, read: Table III, 20 mg/kg/day orally, Sprague Dawley rats.

The term LD50 denotes the dose expected to kill half of the subjects tested. Low values mean a more toxic substance, high ones a less toxic substance. In the case of `[BH3-][N+](C)(C)CCCCCCCCCCCCCCCCCC` [I, N-n-Octadecyl-N,N-Dimethylamine Borane], in the data set with Sprague Dawley male rats (setting [9]), the “lowering of serum triglyceride levels” value was 35% and the “reduction of serum cholesterol levels” value is 54%. Further, in the data set on Sprague Dawley male rats (setting [10]), the “Serum Cholesterol Day 9 (X ± SD)” value is 82 ± 8% of Control, the “Serum Cholesterol Day 14 (X ± SD)” value is 46 ± 5% of Control, the “Serum Triglyceride Day 9 (X ± SD)” value is reported as 82 ± 7% of Control and the “Serum Triglyceride Day 14 (X ± SD)” value is reported as 65 ± 6% of Control. For the same molecule, in the data set with Sprague Dawley male rats (in rats), the optimum dosage result is listed as “about 20 mg./kg”. Also, the LD50 in the data set “Toxicity (LD50)” was above 500 mg/kg. Moreover, in [1], the “reduction of ATP dependent citrate lyase activity” value is reported as “more than 50%”. Also, the “effect on cholesterol 7α hydrolase activity” value at Cholesterol 7α hydrolase is “unaffected”. In addition, the inhibition at 100 µM in data set [2] (100 μM) was 41%. Also, the inhibition at 200 µM in [2] (200 μM) turned out to be 55%. In addition, in data set [3], the “effect on sn-glycerol-3 phosphate acyl transferase activity” value is listed as “unaffected”. Moreover, in [4], the “reduction in phosphatidate phosphohydrolase activity” value stood at 67%. Also, the “reduction of hepatic lipoprotein lipase activity” value in data set [5] (100 μM) worked out at 23%. Also, in data set [5] (200 μM), the “reduction of hepatic lipoprotein lipase activity” value was determined as 23%. In addition, the “reduction of acetyl CoA synthetase” value on acetyl CoA synthetase is 32%. In data set [6], the “reduction of ATP dependent citrate lyase activity” value is 62%. In data set [7], the “reduction of cholesterol 7α hydroxylase activity” value was determined as 35%. Moreover, in [8], the “reduction of phosphatidate phosphohydrolase activity” value is reported as 40%.
